Several values for one entry are separate records, joined by “and”; a condition that tells them apart may be missing. Identical values can stand only once.
What was measured:
Format in all cases: cell-based, human
[1] = system: non-senescent control A549 cells; assay: Nuclei count senolytic assay, TIS model, non-senescent control cells; conditions: for Mean % Cell Survival: Control cells; for % Cell Survival: control cells, single replicate
Method in brief: (§1)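 A549 cells were made senescent with 100 μM etoposide for 48 h, then kept three days in normal media; non-senescent A549 served as controls. Compounds were dosed as a 10-point […] series (10 μM to 10 nM final) for 72 h in triplicate. Hoechst-stained nuclei were counted by imaging after fixation.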

[2] = system: senescent A549 cells (etoposide-induced); assay: Nuclei count senolytic assay, therapy-induced senescence (TIS) model, senescent cells; conditions: for Mean % Cell Survival: Senescent cells; for % Cell Survival: senescence cells, single replicate
Method in brief: as §1

[3] = system: non-senescent control IMR90 ER:RAS cells; assay: Nuclei count (Hoechst, high content imaging) senolytic assay, OIS model, non-senescent control cells; conditions: for Mean % Cell Survival: Control, mean n=3 (Fig 3C); for % Cell Survival: control
Method in brief: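 Senescence in IMR90 ER:RAS fibroblasts induced with 100 nM 4-OHT; non-senescent and senescent cells treated 72 h with compounds, 10-point […] range 10 μM–10 nM, triplicate. Cells fixed, permeabilised, Hoechst-stained; total nuclei per well counted by high-content imaging versus untreated controls as cell-death readout.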

SMILES: CO[C@H]1C[C@H](O[C@H]2CC[C@]3(C)[C@H]4CC[C@]5(C)[C@@H](C6=CC(=O)OC6)CC[C@]5(O)[C@@H]4CC[C@]3(O)C2)O[C@H](C)[C@H]1O[C@@H]1O[C@H](CO)[C@@H](O)[C@H](O)[C@H]1O [Periplocin, periplocin]
- IC50 ([1]; TIS model, non-senescent A549, nuclei count, 72 h): 267 nM
- Mean % Cell Survival ([1]; log (dose) [M] -5): 2.124%
- % Cell Survival ([1]; log (dose) [M] -5): 2.877% and 2.211% and 1.286%
- Mean % Cell Survival ([1]; log (dose) [M] -5.33): 3.638%
- % Cell Survival ([1]; log (dose) [M] -5.33): 1.2112% and 8.916% and 0.7857%
- Mean % Cell Survival ([1]; log (dose) [M] -5.66): 7.571%
- % Cell Survival ([1]; log (dose) [M] -5.66): 13.9288% and 0.7846% and 8%
- Mean % Cell Survival ([1]; log (dose) [M] -6): 7.77%
- % Cell Survival ([1]; log (dose) [M] -6): 11.9606% and 5.492% and 5.857%
- Mean % Cell Survival ([1]; log (dose) [M] -6.33): 26.1787%
- % Cell Survival ([1]; log (dose) [M] -6.33): 37.7744% and 16.7618% and 24%
- Mean % Cell Survival ([1]; log (dose) [M] -6.66): 59.1283%
- % Cell Survival ([1]; log (dose) [M] -6.66): 65.1022% and 52.2111% and 60.0714%
- Mean % Cell Survival ([1]; log (dose) [M] -7): 84.2496%
- % Cell Survival ([1]; log (dose) [M] -7): 92.3543% and 73.8231% and 86.5714%
- Mean % Cell Survival ([1]; log (dose) [M] -7.33): 108.222%
- % Cell Survival ([1]; log (dose) [M] -7.33): 116.881% and 101.07% and 106.714%
- Mean % Cell Survival ([1]; log (dose) [M] -7.66): 106.048%
- % Cell Survival ([1]; log (dose) [M] -7.66): 102.877% and 112.197% and 103.071%
- Mean % Cell Survival ([1]; log (dose) [M] -8): 97.1202%
- % Cell Survival ([1]; log (dose) [M] -8): 99.8486% and 91.5121% and 100%
- concentration at which a senolytic effect was reached ([2]; TIS A549, Hoechst labelling, marginal effect on normal cells): 46.4 nM
- IC50 ([2]; TIS model, etoposide-induced senescent A549, nuclei count, 72 h): 72.2 nM
- senolytic action (in words) ([2]; experimental screen, TIS senescent A549): strong senolytic action
- Mean % Cell Survival ([2]; log (dose) [M] -5): 2.656%
- % Cell Survival ([2]; log (dose) [M] -5): 2.664% and 2.743% and 2.561%
- Mean % Cell Survival ([2]; log (dose) [M] -5.33): 3.4604%
- % Cell Survival ([2]; log (dose) [M] -5.33): 2.7192% and 5.421% and 2.241%
- Mean % Cell Survival ([2]; log (dose) [M] -5.66): 3.427%
- % Cell Survival ([2]; log (dose) [M] -5.66): 2.83% and 4.507% and 2.945%
- Mean % Cell Survival ([2]; log (dose) [M] -6): 6.477%
- % Cell Survival ([2]; log (dose) [M] -6): 6.937% and 6.9889% and 5.506%
- Mean % Cell Survival ([2]; log (dose) [M] -6.33): 11.1387%
- % Cell Survival ([2]; log (dose) [M] -6.33): 13.0411% and 10.516% and 9.859%
- Mean % Cell Survival ([2]; log (dose) [M] -6.66): 17.1368%
- % Cell Survival ([2]; log (dose) [M] -6.66): 19.7003% and 13.9125% and 17.7977%
- Mean % Cell Survival ([2]; log (dose) [M] -7): 34.3857%
- % Cell Survival ([2]; log (dose) [M] -7): 35.4051% and 33.1809% and 34.5711%
- Mean % Cell Survival ([2]; log (dose) [M] -7.33): 62.5957%
- % Cell Survival ([2]; log (dose) [M] -7.33): 65.3163% and 61.2671% and 61.2036%
- Mean % Cell Survival ([2]; log (dose) [M] -7.66): 94.3691%
- % Cell Survival ([2]; log (dose) [M] -7.66): 88.7902% and 97.518% and 96.799%
- Mean % Cell Survival ([2]; log (dose) [M] -8): 98.9494%
- % Cell Survival ([2]; log (dose) [M] -8): 101.831% and 100.523% and 94.4942%
- Mean % Cell Survival ([3]; log (dose) [M] -5, 72 h): 18.4295%
- Mean % Cell Survival ([3]; log (dose) [M] -5.33, 72 h): 19.4604%
- Mean % Cell Survival ([3]; log (dose) [M] -5.66, 72 h): 23.5452%
- Mean % Cell Survival ([3]; log (dose) [M] -6, 72 h): 29.0681%
- Mean % Cell Survival ([3]; log (dose) [M] -6.33, 72 h): 43.2104%
- Mean % Cell Survival ([3]; log (dose) [M] -6.66, 72 h): 52.7161%
- Mean % Cell Survival ([3]; log (dose) [M] -7, 72 h): 63.4586%
- Mean % Cell Survival ([3]; log (dose) [M] -7.33, 72 h): 71.1117%
- Mean % Cell Survival ([3]; log (dose) [M] -7.66, 72 h): 89.3621%
- Mean % Cell Survival ([3]; log (dose) [M] -8, 72 h): 91.9585%
- IC50 ([3]; OIS model, non-senescent IMR90 ER:RAS, nuclei count, 72 h): 300 nM
- % Cell Survival ([3]; log (dose) [M] -5, individual replicates (Fig 3D)): 15.9071% and 11.1013% and 28.2801%
- % Cell Survival ([3]; log (dose) [M] -5.33, individual replicates (Fig 3D)): 20.9802% and 15.9471% and 21.4539%
- % Cell Survival ([3]; log (dose) [M] -5.66, individual replicates (Fig 3D)): 25.1075% and 20.6167% and 24.9113%
- % Cell Survival ([3]; log (dose) [M] -6, individual replicates (Fig 3D)): 32.8461% and 26.2555% and 28.1028%
- % Cell Survival ([3]; log (dose) [M] -6.33, individual replicates (Fig 3D)): 39.8108% and 40.3524% and 49.4681%
- % Cell Survival ([3]; log (dose) [M] -6.66, individual replicates (Fig 3D)): 51.9347% and 55.859% and 50.3546%
- % Cell Survival ([3]; log (dose) [M] -7, individual replicates (Fig 3D)): 57.6956% and 62.3789% and 70.3014%
- % Cell Survival ([3]; log (dose) [M] -7.33, individual replicates (Fig 3D)): 64.4884% and 71.5419% and 77.305%
- % Cell Survival ([3]; log (dose) [M] -7.66, individual replicates (Fig 3D)): 94.8409% and 82.7313% and 90.5142%
- % Cell Survival ([3]; log (dose) [M] -8, individual replicates (Fig 3D)): 93.6371% and 90.7489% and 91.4894%

Reference: publication PMC10257182, “Discovery of senolytics using machine learning” (Nature Communications, 2023)
